Measurements reported in article PMC10675597, “Design, Synthesis, and Antisickling Investigation of a Thiazolidine Prodrug of TD-7 That Prolongs the Duration of Action of Antisickling Aromatic Aldehyde” (Pharmaceutics, 2023).

What was measured:
sickling = system: sickling; design: method as in PMID 30289405; settings: cited from earlier work
[1] = design: method as in PMID 34657559, PMID 9490025, PMID 10376886, PMID 11154732; settings: cited from earlier work
[2] = Drug solubility in SNEDDS formulation; assay type: physicochemical; settings: SNEDDS (oleic acid 15%, tween 80 10%, PEG 400 75%), 25 °C, 48 h
Description: To determine the drug solubility in the prepared SNEDDS formulation, excess amount (approximately 300 mg) of Pro-7 was added to 4 mL of the prepared SNEDDS. The mixture was vortex and kept in a shaking water bath at 25 °C for 48 h, and then filtered using Acrodisc® syringe filter ([…]) and the concentration of Pro-7 determined spectrophotometrically at 296 nm.

[3] = Solubility study of Pro-7 in solvents; assay type: physicochemical; settings: 25 °C, 48 h
Description: The solubility of Pro-7 was tested in water, ethanol, methanol, dichloromethane, chloroform, and acetone. An excess amount of the Pro-7 was added to a known volume of each solvent in a screw cap vial. Each vial was kept in a shaking water bath at 25 °C for 48 h. The content of each vial was filtered using an Acrodisc® syringe filter of […] (Port Washington, NY, USA), and the concentration of Pro-7 determined spectrophotometrically at 296 nm.

[4] = In-vivo pharmacokinetic study in rat; design: species or system male Sprague Dawley rats
Description: Investigations were carried out to examine the pharmacokinetic profiles of Pro-7, including the enteric-coated microspheres and the intravenous (IV) formulation using a one-period parallel design. The study design and conduct adhered to ethical guidelines and regulatory standards to ensure the welfare of the animals. The study was also conducted in strict adherence to internationally recognized guidelines for ethical research and regulatory standards. The principles of Good Clinical Practice (GCP), the guidelines set forth by the International Conference on Harmonization (ICH), and the rigorous standards of the European Medicines Agency (EMA) served as the framework for the study’s execution. The protocol for the animal study underwent a thorough evaluation and received formal approval from the Research Ethics Committee at the Faculty of Pharmacy, King Abdulaziz University, Saudi Arabia.
Male Sprague Dawley rats, each with an average weight of 250 g were housed in a controlled facility with a 12-h light/dark cycle, at constant temperature of 25 °C, with continuous access to both food and water throughout the study. All animals were acclimated to standard housing for at least 7 days. The animals were separated into distinct groups (n = 5). Group I was treated with a single PO (50 mg/kg body weight) dose, while Group II was administered a single IV (25 mg/kg body weight) dose of Pro-7. Additional three control groups were included to validate and enhance the robustness of our findings. These include a normal control group without treatment, a control IV administration group that was administered non-medicated SNEDDS formulation, and a control oral administration group that was given non-medicated oral formulation.
The oral formulation was suspended in 1% aqueous carboxymethyl cellulose. Blood samples from the jugular vein, at 0.25 (for IV only), 0.5, 2, 4, 8, 10, 12, and 24 h were collected into EDTA tubes. To determine the concentration of TD-7 in the whole blood, aliquots (45 µL) of blood samples were mixed with 20 µL of warfarin (used as IS) in a concentration of 1 µg/mL and 500 µL of 1% formic acid in acetonitrile. The vials were centrifuged for 5 min at 10,000 rpm, and 2 µL of the resulting solution was analyzed by LC-MS/MS.
The concentration of both TD-7 and Pro-7 in the collected blood samples were quantified using LC–MS/MS method utilizing LLS/DMPK/005 Shimadzu-8045 LC-MS/MS instrument equipped with Lab solution 6.8 software. Linearity of the TD-7 and Pro-7 assay methods was verified within the concentration range 8.21–3776 and 20.4–9396 ng/mL, respectively. A regression coefficient (R^2) of more than 0.993 was obtained. The analytical method was validated in accordance with the FDA Bio-analytical Method Validation Guidelines 2003. Chromatographic separation was conducted on Atlantis C18 (4.6 × 50 mm, 3.5 µm) at 30 °C. The injection volume was 2 µL, the flow rate was adjusted at 0.7 mL/min, the total run time was 2.5 min, and the mobile phase consisted of 0.1% formic acid in acetonitrile:10 mM aqueous ammonium formate (70:30 v/v). The retention times for TD-7, Pro-7 and IS were 1.047, 1.178, and 1.503 min, respectively. The limit of quantification for TD-7 and Pro-7 was established at of 8.21 and 20.4, respectively.
Pharmacokinetic parameters were calculated using non-compartmental analysis with Kinetica TM (version 4, Thermo Electron Corporation, Waltham, MA, USA) software. The following parameters were determined: Maximum plasma concentration (Cmax), Elimination half-life (t½), Area under the plasma concentration-time curve from time 0 to the last measurable concentration (AUC0–t), Area under the plasma concentration-time curve from time 0 to infinity (AUC0–∞), Clearance (Cl), and Volume of distribution (Vd).
The t½ was determined as 0.693 divided by the elimination rate constant. […]

[5] = intravenous 25 mg/kg Pro-7, rat, blood, n = 5
[6] = intravenous 25 mg/kg Pro-7, rat, n = 5
[7] = oral 50 mg/kg Pro-7 (enteric-coated formulation), rat, blood, n = 5
[8] = oral 50 mg/kg Pro-7 (enteric-coated formulation), rat, n = 5

Question: With COc1ccc(OCc2cccc(CO)n2)c(C=O)c1 [TD-7, 2-((6-(hydroxymethyl)pyridin-2-yl)methoxy)-5-methoxybenzaldehyde] as the compound, how does the “sickling inhibition potency over vanillin” value (sickling) read?
Answer: The value was “several fold”.

Question: What about the “oral bioavailability (in words)” value [1] of the same compound?
Answer: Its value is “low oral bioavailability”.

Question: With “1-(2-(3-((6-(hydroxymethyl)pyridin-2-yl)methoxy)-5 methoxyphenyl)thiazolidin-4-yl)propan-1-one [Pro-7]” as the compound, how does the “solubility in the prepared SNEDDS formulation” value [2] read?
Answer: Its value is 68.94 mg/mL.

Question: What about the solubility ([3]; acetone) of the same compound?
Answer: The solubility was 11.64 mg/mL.

Question: And the solubility ([3]; chloroform)?
Answer: The solubility was 66.43 mg/mL.

Question: What about the solubility ([3]; dichloromethane) of the same compound?
Answer: The solubility was 54.89 mg/mL.

Question: And the solubility ([3]; ethanol)?
Answer: The solubility was 85.98 mg/mL.

Question: And the solubility ([3]; methanol)?
Answer: The solubility was 88.34 mg/mL.

Question: What about the aqueous solubility ([3]; water) of the same compound?
Answer: The aqueous solubility was 0.165 mg/mL.

Question: And the “AUC0–t” value [4, 5]?
Answer: The value was 1830 ± 737 ng·h/mL.

Question: What about the “AUC0–∞” value [4, 5] of the same compound?
Answer: The value was 1956 ± 792 ng·h/mL.

Question: And the Cmax [4, 5]?
Answer: The Cmax was 1426 ± 926 ng/mL.

Question: What about the t½ [4, 5] of the same compound?
Answer: Its t½ is 4.98 ± 1.89 h.

Question: And the Cl [4, 6]?
Answer: The Cl was 238 ± 85.9 mL/min/kg.

Question: What about the Vd [4, 6] of the same compound?
Answer: The Vd was 98.9 ± 45.3 L/kg.

Question: What about the “AUC0–t” value [4, 7] of the same compound?
Answer: Its value is 672 ± 255 ng·h/mL.

Question: And the “AUC0–∞” value [4, 7]?
Answer: The value was 730 ± 225 ng·h/mL.

Question: And the Cmax [4, 7]?
Answer: Its Cmax is 469 ± 322 ng/mL.

Question: And the Tmax [4, 7]?
Answer: The Tmax was 0.5 ± 0.0 h.

Question: And the t½ [4, 7]?
Answer: Its t½ is 4.73 ± 1.22 h.

Question: What about the Cl [4, 8] of the same compound?
Answer: The Cl was 200.89 ± 34.3 mL/min/kg.

Question: And the Vd [4, 8]?
Answer: The Vd was 83.7 ± 22.1 L/kg.

Question: And the “Fraction of drug absorbed (% F)” value ([4]; oral 50 mg/kg vs intravenous 25 mg/kg, rat)?
Answer: The value was 18.4%.
